Laboratory results taken from ChEMBL document CHEMBL1140205, “Discovery and development of fatty acid amide hydrolase (FAAH) inhibitors” (J Med Chem, 2008).

The molecules below were run against T1, Fatty-acid amide hydrolase 1 (Homo sapiens, UniProt O00519) (assay: Inhibition of FAAH). Settings: not given.
T1 sequence (O00519 whole entry): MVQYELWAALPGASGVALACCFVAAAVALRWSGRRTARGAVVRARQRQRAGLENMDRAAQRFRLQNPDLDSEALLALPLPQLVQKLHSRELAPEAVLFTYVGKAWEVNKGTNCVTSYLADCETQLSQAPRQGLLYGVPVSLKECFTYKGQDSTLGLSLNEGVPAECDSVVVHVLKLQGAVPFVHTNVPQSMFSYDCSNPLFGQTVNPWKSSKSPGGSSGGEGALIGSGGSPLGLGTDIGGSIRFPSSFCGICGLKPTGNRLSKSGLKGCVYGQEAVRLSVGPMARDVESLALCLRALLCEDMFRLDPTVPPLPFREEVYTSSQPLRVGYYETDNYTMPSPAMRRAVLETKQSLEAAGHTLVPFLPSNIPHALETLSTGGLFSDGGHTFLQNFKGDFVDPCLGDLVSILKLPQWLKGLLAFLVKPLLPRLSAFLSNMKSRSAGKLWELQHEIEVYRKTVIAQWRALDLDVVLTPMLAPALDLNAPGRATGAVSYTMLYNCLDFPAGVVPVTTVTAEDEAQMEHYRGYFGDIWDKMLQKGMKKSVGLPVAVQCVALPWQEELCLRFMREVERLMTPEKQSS

SMILES | Ki [µM]
O=C(CCCCc1ccccc1)c1nc2ncccc2o1 | 0.0003
CCCCCCCC/C=C\CCCCCCC(=O)c1nnn(C)n1 | 0.065
CCCCCCCC/C=C\CCCCCCCC(=O)O [OLEIC ACID] | 6
CCCCCCCC/C=C\CCCCCCCC(=O)C(=O)OCC | 0.009
CCCCCCCC/C=C\CCCCCCC(=O)c1nc2cccnc2o1 | 0.011
CCCCCCCC/C=C\CCCCCCC(=O)c1nc2ccccc2o1 | 0.37
O=C(CCCCCCc1ccccc1)c1nnc[nH]1 | > 1
CCCCCCCC/C=C\CCCCCCC(=O)c1ccccc1 | > 100
CCCCCCCC/C=C\CCCCCCCC(O)C(N)=O (stereo not given) | > 100
CCCCCCCC/C=C\CCCCCCC(=O)c1nc2ncccc2o1 | 0.0023
O=C(CCCCCCc1ccccc1)c1nnn[nH]1 | > 1
O=C(CCCCCCCCc1ccccc1)c1nc2ncccc2o1 | 0.00052
CCCCCCCC/C=C\CCCCCCC(=O)c1ncc(-c2ccccc2)o1 | 0.32
CCCCCCCC/C=C\CCCCCCC(=O)c1nnc(-c2ccccn2)o1 | 3
CCCCCCCC/C=C\CCCCCCCC=O [OLEALDEHYDE] | 0.19
CCCCCCCC/C=C\CCCCCCC(=O)c1ncc(-c2cccnc2)o1 | 0.061
CCCCCCCC/C=C\CCCCCCC(=O)c1ccncn1 | 0.11
O=C(CCCCCCc1ccccc1)c1nnn(-c2ccccn2)n1 | 0.0011
CCCCCCCCCCCCCCCCCC(=O)C(F)(F)F | 0.24
O=C(CCCCS(=O)(=O)Cc1ccccc1)c1ncc(-c2ccccn2)o1 | > 10
CCCCCCCC/C=C\CCCCCCC(=O)c1nccn1C | > 100
CCCCCCCC/C=C\CCCCCCCC(=O)CCl | 0.7

SMILES | Ki [µM]
O=C(CCCc1ccccc1)c1nc2ncccc2o1 | 0.0069
CCCCCCCC/C=C\CCCCCCCC(=O)C(F)(F)F | 0.012
CCCCCCCC/C=C\CCCCCCC(=O)c1cccnn1 | 0.13
O=C(CCCCOCc1ccccc1)c1ncc(-c2ccccn2)o1 | 0.055
CCCCCCCC/C=C\CCCCCCC(=O)c1nc2c(C)cccc2o1 | > 100
CCCCCCC(C)OC(=O)CC(=O)CBr (stereo not given) | 0.82
CCCCCCCC/C=C\CCCCCCC(=O)c1ncco1 | 0.017
CCCCCCCC/C=C\CCCCCCCC(C)=O | > 100
O=C(CCCCCCCc1ccccc1)c1nc2ncccc2o1 | 0.00039
CCCCCCCCCCCC(=O)C(F)(F)F | 0.14
CCCCCCCC/C=C\CCCCCCC(=O)c1nc(-c2ccccc2)c(-c2ccccc2)o1 | > 100
O=C(CCCCCCc1ccccc1)c1nc2ncccc2o1 | 0.00028
CCCCCCCC/C=C\CCCCCCC(=O)c1ncc(-c2ccoc2)o1 | 0.61
CCCCCCCC/C=C\CCCCCCC(=O)c1nccs1 | > 100
O=C(CCCCSCc1ccccc1)c1ncc(-c2ccccn2)o1 | 0.025
CN(CCCCC(=O)c1ncc(-c2ccccn2)o1)Cc1ccccc1 | 0.2
CCCCCCCC(=O)C(F)(F)F | 1.2
CCCCCCCC/C=C\CCCCCCC(=O)c1ncc(-c2ccco2)o1 | 0.054
CCCCCC(=O)C(F)(F)F | 28.9
CCCCCCCCCC(=O)C(F)(F)F | 0.13
CCCCCCCC/C=C\CCCCCCC(=O)c1nc2ccncc2o1 | 0.0037
CCCCCCCC/C=C\CCCCCCC(=O)c1ncc(-c2ccccn2)o1 | 0.018

SMILES | Ki [µM]
CCCCCCC(=O)C(F)(F)F | 10.7
CCCCCCCC/C=C\CCCCCCC(=O)c1nc2cnccc2o1 | 0.0072
O=C(CCCCCCc1ccccc1)c1nnc(-c2ccccn2)[nH]1 | > 10
O=C(CCCCCCc1cccc(Cl)c1)c1ncc(-c2ccccn2)o1 | 0.0009
O=C(CCCCCc1ccccc1)c1nc2ncccc2o1 | 0.0002
CCCCCCCC/C=C\CCCCCCC(=O)c1ncc(-c2ccncc2)o1 | 0.056
CCCCCCCC/C=C\CCCCCCC(=O)c1nc(-c2ccccn2)co1 | 0.031
O=C(CCc1ccc(COc2ccccc2)cc1)c1ncc(-c2ccccn2)o1 | 0.001
CCCCCCCC/C=C\CCCCCCC(=O)c1ccccn1 | > 100
N#Cc1cnc(C(=O)CCc2ccc(-c3ccccc3)cc2)o1 | 0.0002
CCCCCCCC/C=C\CCCCCCC(=O)c1nc2cc(C)ccc2o1 | > 100
O=C(CCCCCCc1ccccc1)C(F)(F)F | 0.1
CCCCCCCCCCCCCC(=O)C(F)(F)F | 0.49
CCCCCCCC/C=C\CCCCCCCC(OC)OC | > 300
O=C(O)c1cccc(CCCCCCC(=O)c2ncc(-c3ccccn3)o2)c1 | > 0.6
CCCCCCCC/C=C\CCCCCCC(=O)c1ncc(-c2ccsc2)o1 | 13.2
CCCCCCCC/C=C\CCCCCCC(=O)c1nc2ccc(C)cc2o1 | > 100
CCCCCCCC/C=C\CCCCCCC(=O)c1nc2cccc(C)c2o1 | 13
O=C(CCCC[S+]([O-])Cc1ccccc1)c1ncc(-c2ccccn2)o1 (stereo not given) | 2.5
CCCCCCCC/C=C\CCCCCCCC(=O)C(N)=O | 0.017

Same assay, conditions: read-out: IC50

SMILES | IC50 [µM]
CCCCC/C=C\C/C=C\C/C=C\C/C=C\CCCC(=O)NCCO [ANANDAMIDE] | 3.4
CC(C)c1cccc(CN2CCC(CCCC(=O)c3ncco3)CC2)c1 | 0.0036
CCCCC/C=C\C/C=C\C/C=C\C/C=C\CCCC(=O)O [ARACHIDONIC ACID] | > 100
O=C(NC1CCCC1)Oc1cccc(C(=O)c2nc3ccccc3s2)c1 | 47
O=C(NC1CCCC1)Oc1cccc(C(=O)c2nc3ccccc3o2)c1 | 28
OB(O)c1ccc(Oc2ccccc2)cc1 | < 0.01
CCCCC/C=C\C/C=C\C/C=C\C/C=C\CCCNC(=O)NCc1ccc(OC)c(O)c1 | 2
NC(=O)c1cccc(-c2cccc(OC(=O)NCc3ccc4ccccc4c3)c2)c1 | 0.00063
CCCCC/C=C\C/C=C\C/C=C\C/C=C\CCCC(=O)NC12CC3CC(CC(C3)C1)C2 | 37.4
O=C(Nc1cccc(C(=O)c2nc3ccccc3o2)c1)NC1CCCC1 | > 300
CNC(=O)COC(=O)N1CCC(CCc2ccc(Cl)cc2)CC1 | 0.013
CCCCC/C=C\C/C=C\C/C=C\C/C=C\CCCC(=O)NCC1CC1 | 1.4
CCOC(=O)CCCc1ccc(-n2c(CC)nc(-c3ccccc3)c2-c2ccccc2)cc1 | 0.064
CCCCC/C=C\C/C=C\C/C=C\C/C=C\CCCC(=O)NCCCl | 0.9
CCCCC/C=C\C/C=C\C/C=C\C/C=C\CCCC(=O)Nc1cccnc1 | 1.2

Same assay, conditions: read-out: pIC50 (converted)

SMILES | IC50 [µM]
CCCCCCCCCCCCCCCC(=O)NCCCl | 2.63
CCCCCCCCCCCCCCCC(=O)NCCCO [N-(3-HYDROXYPROPYL)PALMITAMIDE] | 3.8
CCCCCCCCCCCCCCCC(=O)NCCCCl | 2.51
C=CCNC(=O)CCCCCCCCCCCCCCC [HEXADECANOIC ACID ALLYLAMIDE] | 3.39
CCCCCCCCCCCCCCCC(=O)NCCBr | 3.55
CCCCCCCCCCCCCCCC(=O)NCC | 3.55
CCCCCCCCCCCCCCN1C(=O)C(c2ccccc2)(c2ccccc2)NC1=S | 1.15

Each molecule was assayed against T2, Fatty-acid amide hydrolase 1 (Rattus norvegicus, UniProt P97612) (assay: Inhibition of rat FAAH). Settings: not given.
T2 sequence (P97612 whole entry): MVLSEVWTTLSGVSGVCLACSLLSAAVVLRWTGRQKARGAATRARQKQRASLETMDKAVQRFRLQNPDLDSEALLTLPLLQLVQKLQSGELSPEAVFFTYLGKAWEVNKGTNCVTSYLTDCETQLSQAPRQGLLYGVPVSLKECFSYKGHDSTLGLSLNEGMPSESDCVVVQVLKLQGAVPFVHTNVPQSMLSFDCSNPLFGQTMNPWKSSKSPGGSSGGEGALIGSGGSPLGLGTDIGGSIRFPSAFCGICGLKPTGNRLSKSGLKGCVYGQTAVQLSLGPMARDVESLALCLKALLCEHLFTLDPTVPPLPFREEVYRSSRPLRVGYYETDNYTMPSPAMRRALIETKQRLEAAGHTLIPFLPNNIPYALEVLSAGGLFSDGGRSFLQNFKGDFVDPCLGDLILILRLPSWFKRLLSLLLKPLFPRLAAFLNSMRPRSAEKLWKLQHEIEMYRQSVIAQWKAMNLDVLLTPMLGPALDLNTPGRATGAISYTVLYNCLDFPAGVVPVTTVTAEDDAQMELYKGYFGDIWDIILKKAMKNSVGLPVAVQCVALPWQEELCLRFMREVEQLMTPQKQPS

SMILES | IC50 [µM]
CC(C)c1cccc(C(C)C)c1O [PROPOFOL] | 14
CN(C)C(=O)n1nnnc1Cc1ccc(-c2ccccc2)cc1 | 0.0124
CCCC(C)C1(CC)C(=O)NC(=S)NC1=O (stereo not given) [THIOPENTAL] | 2000

The molecules below were run against T1, Fatty-acid amide hydrolase 1 (assay: Inhibition of human FAAH). Settings: not given.

SMILES | IC50 [µM]
NC(=O)c1cccc(-c2cccc(OC(=O)NCCCCCCc3ccccc3)c2)c1 | 0.014
O=C(NC1CCCCC1)Oc1cccc(-c2ccccc2)c1 | 0.063
O=C(NC1CCCCC1)Oc1ccc2ccccc2c1 | 0.324
CCCCCCCC/C=C\CCCCCCCNC(=O)Oc1cccc(-c2cccc(C(N)=O)c2)c1 | 0.058
O=C(NCC1CCCCC1)Oc1ccc(C(=O)O)cc1 | < 0.1
CNC(=O)Oc1cccc2ccccc12 [CARBARIL] | > 30
